Measured values as given in publication PMC5085761 (International Journal of Molecular Sciences, 2016).

Biological target: T1, human MRP4 (Homo sapiens, UniProt O15439)
T1 construct: purchased GenoMembrane Co., Ltd. (Kanagawa, Japan); host or cells: Sf9
T1 sequence (O15439 1-1325): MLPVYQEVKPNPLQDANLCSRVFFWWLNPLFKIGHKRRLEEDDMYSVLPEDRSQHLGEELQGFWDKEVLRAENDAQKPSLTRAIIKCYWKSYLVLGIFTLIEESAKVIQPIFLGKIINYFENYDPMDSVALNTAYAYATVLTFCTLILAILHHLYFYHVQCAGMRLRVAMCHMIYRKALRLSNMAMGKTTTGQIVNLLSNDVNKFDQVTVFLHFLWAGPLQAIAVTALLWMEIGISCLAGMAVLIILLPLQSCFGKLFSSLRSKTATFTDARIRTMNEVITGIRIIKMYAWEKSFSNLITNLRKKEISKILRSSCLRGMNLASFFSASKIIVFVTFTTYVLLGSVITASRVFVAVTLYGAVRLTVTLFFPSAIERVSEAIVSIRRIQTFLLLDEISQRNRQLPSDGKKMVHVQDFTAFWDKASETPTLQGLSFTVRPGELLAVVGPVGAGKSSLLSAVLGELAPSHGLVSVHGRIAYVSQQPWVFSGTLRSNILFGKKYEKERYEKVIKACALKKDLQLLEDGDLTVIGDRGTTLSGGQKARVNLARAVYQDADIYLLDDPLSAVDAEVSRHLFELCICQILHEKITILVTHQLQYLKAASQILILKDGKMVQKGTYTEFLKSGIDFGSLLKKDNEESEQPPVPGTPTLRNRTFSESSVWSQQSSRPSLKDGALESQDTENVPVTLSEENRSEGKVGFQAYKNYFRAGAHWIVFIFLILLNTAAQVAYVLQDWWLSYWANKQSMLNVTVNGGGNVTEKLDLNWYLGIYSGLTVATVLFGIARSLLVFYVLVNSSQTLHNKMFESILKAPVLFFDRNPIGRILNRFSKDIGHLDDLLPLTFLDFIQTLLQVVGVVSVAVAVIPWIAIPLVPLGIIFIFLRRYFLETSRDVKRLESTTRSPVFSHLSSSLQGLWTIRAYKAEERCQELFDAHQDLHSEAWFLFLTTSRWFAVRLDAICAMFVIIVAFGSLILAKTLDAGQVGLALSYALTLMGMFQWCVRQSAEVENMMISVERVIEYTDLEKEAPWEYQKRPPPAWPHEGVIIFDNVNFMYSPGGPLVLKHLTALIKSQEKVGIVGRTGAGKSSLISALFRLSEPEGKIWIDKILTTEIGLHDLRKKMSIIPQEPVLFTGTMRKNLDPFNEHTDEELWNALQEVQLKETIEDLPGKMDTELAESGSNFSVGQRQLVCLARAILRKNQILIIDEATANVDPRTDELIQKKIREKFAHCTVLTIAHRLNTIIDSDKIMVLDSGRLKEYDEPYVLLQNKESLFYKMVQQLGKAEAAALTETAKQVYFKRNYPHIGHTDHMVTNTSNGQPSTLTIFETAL
Experiment: [14C]fluciclovine uptake by MRP4-expressing inside-out vesicles
Format: in vitro ADME
Protocol: For ABC transporters, experimental kits containing Sf9-derived vesicles with high expression levels of human P-gp, MRP4, BCRP, and each ABC transporter (including buffer, ATP/AMP solution, and glutathione) were purchased from GenoMembrane Co., Ltd. (Kanagawa, Japan).
Vesicular transport assays were carried out according to the manufacturer’s protocol. […] The reaction was started by suspending 50 μg of vesicles (10 μL) in 40 μL of the reaction buffer. After incubation for an appropriate period of time, the reaction was stopped by the addition of ice-cold stop buffer (40 mM MOPS-Tris and 70 mM KCl; pH 7.0), after which the solution was filtered through a 0.45 μm HA filter (Millipore Corp., Billerica, MA, USA) using suction, and was washed twice in 5 mL of ice-cold stop buffer. The radioactivity of the filter was measured with a Tri-Carb 2910TR liquid scintillation counter (PerkinElmer) using Ultima Gold (PerkinElmer). The amount of tracer uptake was normalized to the membrane protein amount described in the product information sheets.

N[14C]1(C(=O)O)CC(F)C1 (stereo not drawn) [[^14C]fluciclovine, trans-1-amino-3-fluoro[1-^14C]cyclobutanecarboxylic acid] was tested, and the “uptake compared with control vesicles” value was “no significant difference”.
